One test has as its system L1210. The experiment in a line: Cytotoxicity against murine leukemia L1210 cells. Format: functional, cell-based, Mus musculus.
The nature of test [1]: Cytotoxicity against human epidermoid carcinoma KB cells. Format: functional, cell-based.
Test [2] can be described thus: Vincristine (VCR) accumulation in multidrug resistant human ovarian cancer 2780 AD cells at a concentration 10 ug/mL. Format: functional.
Test [3] in a line: Vincristine (VCR) accumulation in multidrug resistant human ovarian cancer 2780 AD cells at a concentration 1 ug/mL. Format: functional.
Where [4] appears, read: Mus musculus, L1210, read-out: IC50.

Converted amounts (≈) assume the structure as drawn.

For `CCCCCC(=O)NC(c1ccccc1)[C@@H](O)C(=O)O[C@H]1C[C@@]2(O)[C@@H](OC(=O)c3ccccc3)[C@@H]3[C@]4(OC(C)=O)CO[C@@H]4C[C@H](O)[C@@]3(C)C(=O)[C@H](O)C(=C1C)C2(C)C` (stereo partly specified), the IC50 (in general, the concentration at which inhibition is half-maximal) in the test on L1210 (setting [4]) amounted to 0.24 µg/mL (≈ 0.298 µM); in test [1] it was 0.0017 µg/mL (≈ 0.00211 µM).
Turning to `CC(=O)O[C@@H]1C2=C(C)[C@@H](O)C[C@@]2(C(C)(C)O)[C@@H](OC(C)=O)[C@@H]2[C@]3(OC(C)=O)CO[C@@H]3C[C@H](OC(C)=O)[C@@]2(C)[C@H]1OC(C)=O`, the “vincristine accumulation (% of control)” value is 235% in test [2] and 147% in test [3]. Also, the IC50 (in the test with L1210 (setting [4]); in test [1]) was above 10 µg/mL in each case.
`COc1ccc(CCN(C)CCCC(C#N)(c2ccc(OC)c(OC)c2)C(C)C)cc1OC` (stereo unspecified) [VERAPAMIL]: the “vincristine accumulation (% of control)” value stood at 739% in test [2] and 254% in test [3].
For the compound `CC(=O)O[C@H]1C(=O)[C@@]2(C)[C@H]([C@H](OC(=O)c3ccccc3)[C@]3(O)C[C@H](OC(=O)[C@H](O)[C@@H](NC(=O)c4ccccc4)c4ccccc4)C(C)=C1C3(C)C)[C@]1(OC(C)=O)CO[C@@H]1C[C@@H]2O` (mixture of isomers) [PACLITAXEL], the results for the “vincristine accumulation (% of control)” value in test [2] and in test [3] were 138% and 132%, respectively. Besides, the half-inhibitory concentration (IC50) in the test with L1210 (l1210) was 0.026 µg/mL.
As for `C=C1[C@@H](OC(=O)/C=C/c2ccccc2)CC[C@@]2(C)[C@@H](OC(C)=O)[C@H](OC(C)=O)C3=C(C)C(=O)C[C@@H]([C@@H](OC(C)=O)[C@H]12)C3(C)C`, the figures for the “vincristine accumulation (% of control)” value in test [2] and in test [3] were 571% and 195%, respectively. Also, the half-inhibitory concentration (IC50) (in the test with L1210 (setting [4]); in test [1]) was above 10 µg/mL in each case.
`C=C1[C@@H](OC(=O)/C=C/c2ccccc2)CC[C@@]2(C)[C@@H](O)[C@H](OC(C)=O)C3=C(C)C(=O)C[C@@H]([C@@H](OC(C)=O)[C@H]12)C3(C)C`: the “vincristine accumulation (% of control)” value in test [2] worked out at 372%; in test [3], 173%. Besides, the half-maximal inhibitory concentration (IC50) is 1.1 µg/mL (≈ 1.95 µM) with L1210 (setting [4]) and 0.17 µg/mL (≈ 0.301 µM) in test [1].
The matching figures for `C=C1[C@@H](O)C[C@H](OC(C)=O)[C@@]2(C)[C@@H](OC(C)=O)[C@H](OC(C)=O)C3=C(C)[C@@H](OC(C)=O)C[C@@H]([C@@H](O)[C@H]12)C3(C)C`: 439%, 205%, 10 µg/mL (≈ 18.6 µM) and 7.4 µg/mL (≈ 13.8 µM).
The matching figures for `C=C1[C@@H](OC(=O)/C=C/c2ccccc2)C[C@H](OC(C)=O)[C@@]2(COC(C)=O)[C@@H](OC(C)=O)[C@H](O)[C@]3(O)[C@@]4(C)CO[C@]3(C)C(=O)C[C@H]4[C@@H](OC(C)=O)[C@H]12` [TAXUSPINE T]: 308%, 196%, 1 µg/mL (≈ 1.4 µM) and 0.06 µg/mL (≈ 0.0842 µM).
As to `C=C1[C@@H](OC(=O)/C=C/c2ccccc2)CC[C@@]2(C)[C@@H](OC(C)=O)[C@H](OC(C)=O)C3=C(C)C(=O)C[C@@](O)([C@@H](OC(C)=O)[C@H]12)C3(C)C`, the “vincristine accumulation (% of control)” value in test [2] worked out at 436%; in test [3] it was 167%. The 50% inhibitory concentration (IC50) in the test with L1210 (setting [4]) came out at 4.6 µg/mL (≈ 7.39 µM); in test [1] it was 6.9 µg/mL (≈ 11.1 µM).
With `C=C1[C@@H](OC(=O)/C=C/c2ccccc2)C[C@H](OC(C)=O)[C@]2(C)[C@@H]1C[C@]1(C(C)(C)O)C[C@H](OC(C)=O)C(C)=C1[C@@H](O)[C@@H]2OC(C)=O`, the “vincristine accumulation (% of control)” value was found to be 584% in test [2] and 176% in test [3]. The IC50 in the test on L1210 (setting [4]) amounted to 1.2 µg/mL (≈ 1.92 µM); in test [1] it was 5.8 µg/mL (≈ 9.28 µM).
The matching figures for `C=C1[C@@H](OC(=O)/C=C/c2ccccc2)C[C@H](OC(C)=O)[C@]2(C)[C@@H]1C[C@]1(C(C)(C)O)C[C@H](OC(C)=O)C(C)=C1[C@@H](OC(C)=O)[C@@H]2OC(C)=O` [TAXUSPINE J]: 842%, 258%, above 10 µg/mL and above 10 µg/mL.
The matching figures for `CC(=O)O[C@H]1C[C@@]2(O)[C@@H](OC(C)=O)[C@@H]3[C@@]4(CO4)[C@@H](OC(C)=O)C[C@H](OC(C)=O)[C@@]3(C)[C@@H](OC(C)=O)[C@H](OC(C)=O)C(=C1C)C2(C)C`: 135%, 119%, above 10 µg/mL and above 10 µg/mL.
The matching figures for `C=C1[C@@H](OC(=O)/C=C/c2ccccc2)C[C@H](OC(C)=O)[C@@]2(CO)[C@@H](OC(C)=O)[C@H](OC(C)=O)[C@]3(O)[C@@]4(C)CO[C@]3(C)C(=O)C[C@H]4[C@@H](OC(C)=O)[C@H]12` [TAXUSPINE S]: 190%, 136%, 3.8 µg/mL (≈ 5.33 µM) and 0.26 µg/mL (≈ 0.365 µM).
As for `C=C1[C@@H](O)CC[C@@]2(C)[C@@H](OC(C)=O)[C@H](OC(C)=O)C3=C(C)C(=O)C[C@@](O)([C@@H](OC(C)=O)[C@H]12)C3(C)C`, the results for the “vincristine accumulation (% of control)” value in test [2] and in test [3] were 216% and 152%, respectively. Moreover, the values for the half-maximal inhibitory concentration (IC50) (in the test with L1210 (setting [4]); in test [1]) were 6.2 µg/mL (≈ 12.6 µM) and 0.6 µg/mL (≈ 1.22 µM), respectively.
The matching figures for `C=C1[C@@H](OC(=O)CC(c2ccccc2)N(C)C)CC[C@@]2(C)[C@@H](OC(C)=O)[C@H](OC(C)=O)C3=C(C)C(=O)C[C@@H]([C@@H](OC(C)=O)[C@H]12)C3(C)C` (stereo partly specified): 704%, 177%, above 10 µg/mL and above 10 µg/mL.
Turning to `C=C1[C@@H](OC(=O)/C=C/c2ccccc2)CC[C@]2(C)[C@@H]1C[C@@H]1C[C@H](OC(C)=O)C(C)=C([C@@H](OC(C)=O)[C@@H]2OC(C)=O)C1(C)C`, the “vincristine accumulation (% of control)” value is on record as 517% in test [2] and 102% in test [3]. In addition, the half-inhibitory concentration (IC50) in the test on L1210 (setting [4]) was determined as 9.5 µg/mL (≈ 16 µM); in test [1], 8.2 µg/mL (≈ 13.8 µM).
On to `CC(=O)O[C@H]1C[C@@H]2OC[C@@]2(OC(C)=O)[C@H]2[C@H](OC(C)=O)[C@]3(O)C[C@H](OC(=O)CC(c4ccccc4)N(C)C)C(C)=C([C@@H](OC(=O)c4ccccc4)[C@H](OC(C)=O)[C@]12C)C3(C)C` (stereo partly specified), for which the results for the IC50 (in the test on L1210 (setting [4]); in test [1]) were 7.8 µg/mL (≈ 9.2 µM) and above 10 µg/mL, respectively.
With `C=C1[C@@H](O)C[C@H](OC(C)=O)[C@@]2(C)[C@@H](OC(C)=O)[C@H](OC(=O)c3ccccc3)C3=C(C)[C@@H](O)C[C@@]3(C(C)(C)O)[C@@H](OC(C)=O)[C@H]12` [TAXCHININ A], the “vincristine accumulation (% of control)” value in test [2] is given as 192%; in test [3], 143%. Moreover, the IC50 was above 10 µg/mL with L1210 (setting [4]) and 0.4 µg/mL (≈ 0.651 µM) in test [1].
Turning to `CC(=O)O[C@@]12CO[C@@H]1C[C@H](O)[C@@]1(C)C(=O)[C@H](O)C3=C(C)[C@@H](OC(=O)[C@H](O)C(NC(=O)C4CCC4)c4ccccc4)C[C@@](O)([C@@H](OC(=O)c4ccccc4)[C@H]21)C3(C)C` (stereo partly specified), the values for the 50% inhibitory concentration (IC50) (in the test with L1210 (setting [4]); in test [1]) were 0.95 µg/mL (≈ 1.2 µM) and 0.0048 µg/mL (≈ 0.00608 µM), respectively.
As to `CC(=O)O[C@H]1C[C@H]2[C@@H](OC(C)=O)/C=C3\C[C@](C)(C(=O)[C@H](O)C(=C1C)C2(C)C)[C@@H](OC(C)=O)C[C@@H]3OC(=O)/C=C/c1ccccc1` [TAXUSPINE B], the “vincristine accumulation (% of control)” value was found to be 713% in test [2] and 219% in test [3]. The IC50 (with L1210 (setting [4]); in test [1]) was above 10 µg/mL in each case.
In the case of `C=C1[C@@H](OC(=O)CC(c2ccccc2)N(C)C)C[C@H](OC(C)=O)[C@@]2(C)[C@@H](OC(C)=O)[C@H](OC(C)=O)[C@@]3(O)C(C)=C(OC(C)=O)C[C@@H]([C@@H](OC(C)=O)[C@H]12)C3(C)C` (stereo partly specified), the “vincristine accumulation (% of control)” value is reported as 358% in test [2] and 133% in test [3]. For the same compound, the IC50 with L1210 (setting [4]) came out at 2.5 µg/mL (≈ 3.25 µM); in test [1], 2.6 µg/mL (≈ 3.38 µM).
`C=C1[C@@H](OC(=O)/C=C/c2ccccc2)C[C@H](OC(C)=O)[C@@]2(COC(=O)c3ccccc3)[C@@H](OC(C)=O)[C@H](OC(C)=O)[C@]3(O)[C@@]4(C)CO[C@]3(C)C(=O)C[C@H]4[C@@H](OC(C)=O)[C@H]12`: the results for the “vincristine accumulation (% of control)” value in test [2] and in test [3] were 537% and 169%, respectively. The 50% inhibitory concentration (IC50) (in the test on L1210 (setting [4]); in test [1]) was above 10 µg/mL in each case.
With `C=C1[C@@H](OC(C)=O)CC[C@@]2(C)[C@@H](OC(C)=O)[C@H](OC(C)=O)C3=C(C)[C@@H](OC(C)=O)C[C@@H]([C@@H](OC(C)=O)[C@H]12)C3(C)C`, the half-inhibitory concentration (IC50) (with L1210 (setting [4]); in test [1]) was above 10 µg/mL each time.
In the case of `CC(=O)O[C@@]12CO[C@@H]1C[C@H](O)[C@@]1(C)C(=O)[C@H](O)C3=C(C)[C@@H](OC(=O)[C@H](O)C(NC(=O)c4ccccc4)c4ccccc4)C[C@@](O)([C@@H](OC(=O)c4ccccc4)[C@H]21)C3(C)C` (stereo partly specified), the figures for the concentration for half-maximal inhibition (IC50) (in the test with L1210 (setting [4]); in test [1]) were 0.88 µg/mL (≈ 1.08 µM) and 0.015 µg/mL (≈ 0.0185 µM), respectively.
In the same order, the values of `CCCC(=O)NC(c1ccccc1)[C@@H](O)C(=O)O[C@H]1C[C@@]2(O)[C@@H](OC(=O)c3ccccc3)[C@@H]3[C@]4(OC(C)=O)CO[C@@H]4C[C@H](O)[C@@]3(C)C(=O)[C@H](OC(C)=O)C(=C1C)C2(C)C` (stereo partly specified) are 0.21 µg/mL (≈ 0.256 µM) and 0.016 µg/mL (≈ 0.0195 µM).
As for `CC(=O)O[C@H]1C(=O)[C@@]2(C)[C@H]([C@H](OC(=O)c3ccccc3)[C@]3(O)C[C@H](OC(=O)[C@H](O)[C@@H](NC(=O)c4ccccc4)c4ccccc4)C(C)=C1C3(C)C)[C@]1(OC(C)=O)CO[C@@H]1C[C@@H]2O` [PACLITAXEL], the “vincristine accumulation (% of control)” value is reported as 56% in test [2] and 83% in test [3].
Regarding `CCCCCC(=O)NC(c1ccccc1)[C@@H](O)C(=O)O[C@H]1C[C@@]2(O)[C@@H](OC(=O)c3ccccc3)[C@@H]3[C@]4(OC(C)=O)CO[C@@H]4C[C@H](O)[C@@]3(C)C(=O)[C@H](OC(C)=O)C(=C1C)C2(C)C` (stereo partly specified), the IC50 was found to be 0.21 µg/mL (≈ 0.248 µM) with L1210 (setting [4]) and 0.0053 µg/mL (≈ 0.00625 µM) in test [1].
The matching figures for `CC(=O)O[C@H]1C[C@@H]2OC[C@@]2(OC(C)=O)[C@H]2[C@H](OC(=O)c3ccccc3)[C@]3(O)C[C@H](O)C(C)=C([C@@H](O)[C@H](O)[C@]12C)C3(C)C`: 0.27 µg/mL (≈ 0.459 µM) and 0.08 µg/mL (≈ 0.136 µM).

For the origin of these results see ChEMBL document CHEMBL1130376, “Effects of taxoids from Taxus cuspidata on microtubule depolymerization and vincristine accumulation in MDR cells” (Bioorg Med Chem Lett, 1997).
